What follows are compounds tested against 5-HT2A receptors (Rattus norvegicus, UniProt P14842) (assay: in-vitro affinity to 5-HT2A receptors, displacement of [3H]ketanserine (Example A1)). Details: target not given; description names affinity to 5-HT2A receptors; read-out: IC50.
Assay type: binding
From the text: The 5-HT2A receptors are exposed both to [^3H]ketanserine (a substance which is known for its affinity to the receptor) and also to the test compound. The decrease in the affinity of [^3H]ketanserine to the receptor is an indication of the affinity of the test substance to the 5-HT2A receptor.

Chain of 5-HT2A receptors (P14842 whole entry): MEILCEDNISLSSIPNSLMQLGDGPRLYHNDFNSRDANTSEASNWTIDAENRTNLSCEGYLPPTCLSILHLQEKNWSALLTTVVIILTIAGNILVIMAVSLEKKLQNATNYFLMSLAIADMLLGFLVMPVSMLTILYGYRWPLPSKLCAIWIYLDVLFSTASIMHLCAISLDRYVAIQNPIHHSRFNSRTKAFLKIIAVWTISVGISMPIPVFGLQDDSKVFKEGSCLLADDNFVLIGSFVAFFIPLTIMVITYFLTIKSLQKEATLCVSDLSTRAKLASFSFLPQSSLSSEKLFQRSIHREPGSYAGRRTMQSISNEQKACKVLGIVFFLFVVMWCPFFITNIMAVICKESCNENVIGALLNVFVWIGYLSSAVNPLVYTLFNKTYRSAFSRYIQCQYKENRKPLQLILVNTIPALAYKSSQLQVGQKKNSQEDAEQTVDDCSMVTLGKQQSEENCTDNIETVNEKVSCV

In order of rising IC50:
1. CN1CCC(N(C)Cc2cnn(-c3ccc(-c4ccccc4)cc3)c2-c2ccccc2F)C1 (stereo not drawn) [(168), [1-Biphenyl-4-yl-5-(2-fluorophenyl)-1H-pyrazol-4-ylmethyl]-methyl-(1-methylpyrrolidin-3-yl)amine]  16 nM
2. NCc1cnn(-c2ccc(-c3ccccc3)cc2)c1-c1ccccc1 [(165), C-(1-Biphenyl-4-yl-5-phenyl-1H-pyrazol-4-yl)methylamine]  21 nM
3. c1ccc(-c2ccc(-n3ncc(CNCc4ccccn4)c3-c3ccccc3)cc2)cc1 [(172), (1-Biphenyl-4-yl-5-phenyl-1H-pyrazol-4-ylmethyl)pyridin-2-ylmethylamine]  23 nM
4. Cn1cccc1CNCc1cnn(-c2ccc(-c3ccccc3)cc2)c1-c1ccccc1 [(171), (1-Biphenyl-4-yl-5-phenyl-1H-pyrazol-4-ylmethyl)-(1-methyl-1H-pyrrol-2-ylmethyl)amine]  26 nM
5. c1ccc(-c2ccc(-n3ncc(CNCc4ccncc4)c3-c3ccccc3)cc2)cc1 [(170), (1-Biphenyl-4-yl-5-phenyl-1H-pyrazol-4-ylmethyl)pyridin-4-ylmethylamine]  31 nM
6. Cn1ccnc1CNCc1cnn(-c2ccc(-c3ccccc3)cc2)c1-c1ccccc1 [(169), (1-Biphenyl-4-yl-5-phenyl-1H-pyrazol-4-ylmethyl)-(1-methyl-1H-imidazol-2-ylmethyl)amine]  39 nM
7. Fc1ccccc1-c1c(CN2CCC2)cnn1-c1ccc(-c2ccccc2)cc1 [(160), 4-Azetidin-1-ylmethyl-1-biphenyl-4-yl-5-(2-fluorophenyl)-1H-pyrazole]  47 nM
8. O=C1CCCN1CCCNCc1cnn(-c2ccc(-c3ccccc3)cc2)c1-c1ccccc1F [(151), 1-(3-{[1-Biphenyl-4-yl-5-(2-fluorophenyl)-1H-pyrazol-4-ylmethyl]amino}propyl)pyrrolidin-2-one]  64 nM
9. Fc1ccc(-c2ccc(-n3ncc(CN4CCCC4)c3-c3ccccc3F)cn2)cc1 [(142), 2-(4-Fluorophenyl)-5-[5-(2-fluorophenyl)-4-pyrrolidin-1-ylmethylpyrazol-1-yl]pyridine]  75 nM
10. COC(=O)c1cc(NCc2cnn(-c3ccc(-c4ccccc4)cc3)c2-c2ccccc2F)cn1C [(162), Methyl 4-{[1-biphenyl-4-yl-5-(2-fluorophenyl)-1H-pyrazol-4-ylmethyl]amino}-1-methyl-1H-pyrrole-2-carboxylate]  120 nM
11. N#CC(NCc1cnn(-c2ccc(-c3ccccc3)cc2)c1-c1ccccc1F)C(N)=O (stereo not drawn) [(136), 2-{[1-Biphenyl-4-yl-5-(2-fluorophenyl)-1H-pyrazol-4-ylmethyl]-amino}-2-cyanoacetamide]  130 nM
12. Fc1ccccc1-c1c(CNCCCn2ccnc2)cnn1-c1ccc(-c2ccccc2)cc1 [(152), [1-Biphenyl-4-yl-5-(2-fluorophenyl)-1H-pyrazol-4-ylmethyl]-(3-imidazol-1-ylpropyl)amine]  130 nM
13. CN(C)CCN(C)Cc1cnn(-c2ccc(-c3ccc(F)cc3)nc2)c1-c1ccccc1F [(141), N-{5-(2-fluorophenyl)-1-[6-(4-fluorophenyl)pyridin-3-yl]-1H-pyrazol-4-ylmethyl}-N,N′,N′-trimethylethane-1,2-diamine]  140 nM
14. Fc1ccccc1-c1c(CNCCc2c[nH]cn2)cnn1-c1ccc(-c2ccccc2)cc1 [(154), [1-Biphenyl-4-yl-5-(2-fluorophenyl)-1H-pyrazol-4-ylmethyl]-[2-(1H-imidazol-4-yl)ethyl]amine]  170 nM
15. Fc1ccc(F)c(-c2ccc(-n3ncc(CNc4cc[nH]n4)c3-c3ccccc3F)cc2)c1 [(140), [1-(2′,5′-Difluorobiphenyl-4-yl)-5-(2-fluorophenyl)-1H-pyrazol-4-ylmethyl]-(1H-pyrazol-3-yl)amine]  180 nM
16. NC(=O)C1CCCN1Cc1cnn(-c2ccc(-c3ccccc3F)nc2)c1-c1ccccc1F (stereo not drawn) [(145), 1-{5-(2-Fluorophenyl)-1-[6-(2-fluorophenyl)pyridin-3-yl]-1H-pyrazol-4-ylmethyl}pyrrolidine-2-carboxamide]  220 nM
17. CCNC(=O)CN1CCN(Cc2cnn(-c3ccc(-c4ccccc4)cc3)c2-c2ccccc2F)CC1 [(139), 2-{4-[1-Biphenyl-4-yl-5-(2-fluorophenyl)-1H-pyrazol-4-ylmethyl]piperazin-1-yl}-N-ethylacetamide]  230 nM
18. CN(C)C1CCN(Cc2cnn(-c3ccc(-c4ccccc4)cc3)c2-c2ccccc2F)C1 (stereo not drawn) [(167), {1-[1-Biphenyl-4-yl-5-(2-fluorophenyl)-1H-pyrazol-4-ylmethyl]-pyrrolidin-3-yl}dimethylamine]  230 nM
19. Fc1ccccc1-c1c(CNc2ccon2)cnn1-c1ccc(-c2ccccc2)cc1 [(138), [1-Biphenyl-4-yl-5-(2-fluorophenyl)-1H-pyrazol-4-ylmethyl]-isoxazol-3-ylamine]  240 nM
20. CN1CCC(N(C)Cc2cnn(-c3ccc(-c4ccc(F)cc4)nc3)c2-c2ccccc2F)CC1 [(143), {5-(2-Fluorophenyl)-1-[6-(4-fluorophenyl)pyridin-3-yl]-1H-pyrazol-4-ylmethyl}methyl-(1-methylpiperidin-4-yl)amine]  250 nM
21. O=C(NCCO)C1CCN(Cc2cnn(-c3ccc(-c4ccccc4)cc3)c2-c2ccccc2F)CC1 [(164), N-(2-Hydroxyethyl)-1-[1-biphenyl-4-yl-5-(2-fluorophenyl)-1H-pyrazol-4-ylmethyl]piperidine-4-carboxamide]  270 nM
22. COCCN(C)Cc1cnn(-c2ccc(-c3ccc(F)cc3)nc2)c1-c1ccccc1F [(156), {5-(2-Fluorophenyl)-1-[6-(4-fluorophenyl)pyridin-3-yl]-1H-pyrazol-4-ylmethyl}-(2-methoxyethyl)methylamine]  300 nM
23. Fc1ccccc1-c1c(CNC2CCN(Cc3ccccc3)C2)cnn1-c1ccc(-c2ccccc2)cc1 (stereo not drawn) [(161), (1-Benzylpyrrolidin-3-yl)-[1-biphenyl-4-yl-5-(2-fluorophenyl)-1H-pyrazol-4-ylmethyl]amine]  310 nM
24. OCC(Cc1cnc[nH]1)NCc1cnn(-c2ccc(-c3ccccc3)cc2)c1-c1ccccc1F (stereo not drawn) [(137), 2-{[1-Biphenyl-4-yl-5-(2-fluorophenyl)-1H-pyrazol-4-ylmethyl]-amino}-3-(3H-imidazol-4-yl)propan-1-ol]  370 nM
25. Fc1ccccc1-c1c(CN2CCN(Cc3ccsc3)CC2)cnn1-c1ccc(-c2ccccc2)cc1 [(135), 1-[1-Biphenyl-4-yl-5-(2-florophenyl)-1H-pyrazol-4-ylmethyl]-4-thiophen-3-ylmethylpiperazine]  380 nM
26. CN1CCN(Cc2cnn(-c3ccc(-c4cc(F)ccc4F)nc3)c2-c2ccccc2F)CC1 [(147), 1-[1-[6-(2,5-Difluorophenyl)pyridin-3-yl]-5-(2-fluorophenyl)-1H-pyrazol-4-ylmethyl]-4-methylpiperazine]  430 nM
27. OCCc1cnn(-c2ccc(-c3ccccc3)cc2)c1-c1ccccc1F [(173), 2-[1-Biphenyl-4-yl-5-(2-fluorophenyl)-1H-pyrazol-4-yl]-ethanol]  470 nM
28. O=C1NCCCCC1NCc1cnn(-c2ccc(-c3ccccc3)cc2)c1-c1ccccc1F (stereo not drawn) [(163), 3-{[1-Biphenyl-4-yl-5-(2-fluorophenyl)-1H-pyrazol-4-ylmethyl]-amino}azepan-2-one]  510 nM
29. Fc1ccccc1-c1ccc(-n2ncc(CN3CCOCC3)c2-c2ccccc2F)cn1 [(146), 4-{5-(2-Fluorophenyl)-1-[6-(2-fluorophenyl)pyridin-3-yl]-1H-pyrazol-4-ylmethyl}morpholine]  600 nM
30. CN1CCN(CC(O)CC(O)c2cnn(-c3ccc(-c4ccccc4)cc3)c2-c2ccccc2F)CC1 (stereo not drawn) [(149), 1-[1-Biphenyl-4-yl-5-(2-fluorophenyl)-1H-pyrazol-4-yl]-4-(4-methylpiperazin-1-yl)butane-1,3-diol]  620 nM
31. Fc1ccc(-c2ccc(-n3ncc(CNc4cccnc4)c3-c3ccccc3F)cn2)cc1 [(144), {5-(2-Fluorophenyl)-1-[6-(4-fluorophenyl)pyridin-3-yl]-1H-pyrazol-4-ylmethyl}pyridin-3-ylamine]  890 nM
32. CCOC(=O)CNC(=O)CNCc1cnn(-c2ccc(-c3ccccc3)cc2)c1-c1ccccc1F [(153), Ethyl (2-{[1-Biphenyl-4-yl-5-(2-fluorophenyl)-1H-pyrazol-4-ylmethyl]amino}ethanoylamino)acetate]  1100 nM
33. Fc1ccccc1-c1c(C=NNC2=NCCN2)cnn1-c1ccc(-c2ccccc2)cc1 [(166), N-[1-Biphenyl-4-yl-5-(2-fluorophenyl)-1H-pyrazol-4-yl-methylene]-N′-(4,5-dihydro-1H-imidazol-2-yl)hydrazine]  1200 nM
34. C=CCC(O)c1cnn(-c2ccc(-c3ccccc3)cc2)c1-c1ccccc1F (stereo not drawn) [(150), 1-[1-Biphenyl-4-yl-5-(2-fluorophenyl)-1H-pyrazol-4-yl]-but-3-en-1-ol]  1300 nM
35. COCCN(C)Cc1cnn(-c2ccc(-c3cc(F)ccc3F)nc2)c1-c1ccccc1F [(159), [1-[6-(2,5-Difluorophenyl)pyridin-3-yl]-5-(2-fluorophenyl)-1H-pyrazol-4-ylmethyl]-(2-methoxyethyl)-methylamine]  1400 nM
36. CCOC(=O)CNCc1cnn(-c2ccc(-c3ccccc3F)nc2)c1-c1ccccc1F [(148), Ethyl ({5-(2-fluorophenyl)-1-[6-(2-fluorophenyl)pyridin-3-yl]-1H-pyrazol-4-ylmethyl}amino)acetate]  1600 nM
37. NC(=O)C1CCCN1Cc1cnn(-c2ccc(-c3ccccc3)cc2)c1-c1ccccc1F (stereo not drawn) [(155), 1-[1-Biphenyl-4-yl-5-(2-fluorophenyl)-1H-pyrazol-4-ylmethyl]-pyrrolidine-2-carboxamide]  1700 nM
38. COCCN(C)Cc1cnn(-c2ccc(-c3ccccc3F)nc2)c1-c1ccccc1F [(157), {5-(2-Fluorophenyl)-1-[6-(2-fluorophenyl)pyridin-3-yl]-1H-pyrazol-4-ylmethyl}-(2-methoxyethyl)methylamine]  2000 nM
39. Fc1ccccc1-c1c(CNc2cnccn2)cnn1-c1ccc(-c2ccccc2)cc1 [(158), [1-Biphenyl-4-yl-5-(2-fluorophenyl)-1H-pyrazol-4-ylmethyl]-pyrazin-2-ylamine]  2300 nM

Source: patent US20060264419A1 (priority 2003, published 2006)
